The values below come from ChEMBL document CHEMBL4387741, “Optimization of novel reversible Bruton's tyrosine kinase inhibitors identified using Tethering-fragment-based screens” (Bioorg Med Chem, 2019).

Experiment [1] concerns the target Hepatocyte growth factor receptor (Homo sapiens) (UniProt P08581). The experiment in a line: Inhibition of wild-type human partial length MET (D1010 to S1367 residues) expressed in bacterial expression system at 1 uM by Kinomescan method relative to control.
Experiment [2] deals with Mitogen-activated protein kinase kinase kinase 13 (Homo sapiens) (UniProt O43283). Kind of experiment: Inhibition of wild-type human full length LZK (M1 to W966 residues) expressed in mammalian expression system at 1 uM by Kinomescan method relative to control.
The target of experiment [3] is Mitogen-activated protein kinase kinase kinase 4 (Homo sapiens) (UniProt Q9Y6R4). The experiment in a line: Inhibition of wild-type human partial length MAP3K4 (G1319 to E1608 residues) expressed in bacterial expression system at 1 uM by Kinomescan method relative to control.
For experiment [4], the target named is Dual specificity tyrosine-phosphorylation-regulated kinase 1B (Homo sapiens) (UniProt Q9Y463). The experiment in a line: Inhibition of wild-type human full length DYRK1B (M1 to S629 residues) expressed in bacterial expression system at 1 uM by Kinomescan method relative to control.
Experiment [5] concerns the target Muscle, skeletal receptor tyrosine-protein kinase (Homo sapiens) (UniProt O15146). Kind of experiment: Inhibition of wild-type human partial length MUSK (M553 to V869 residues) expressed in bacterial expression system at 1 uM by Kinomescan method relative to control.
Experiment [6] concerns the target Serine/threonine-protein kinase WNK2 (Homo sapiens) (UniProt Q9Y3S1). The experiment in a line: Inhibition of wild-type human partial length WNK2 (V47 to D482 residues) expressed in mammalian expression system at 1 uM by Kinomescan method relative to control.
Experiment [7] concerns the target Wee1-like protein kinase 2 (Homo sapiens) (UniProt P0C1S8). Kind of experiment: Inhibition of wild-type human partial length WEE2 (M204 to K492 residues) expressed in bacterial expression system at 1 uM by Kinomescan method relative to control.
Experiment [8] concerns Epidermal growth factor receptor (Homo sapiens), P00533 [UNDEFINED MUTATION]. The experiment in a line: Inhibition of human partial length EGFR S752-I759del mutant expressed in bacterial expression system at 1 uM by Kinomescan method relative to control.
Experiment [9] concerns the target Casein kinase II subunit alpha' (Homo sapiens) (UniProt P19784). Kind of experiment: Inhibition of wild-type human full length CSNK2A2 (M1 to R350 residues) expressed in mammalian expression system at 1 uM by Kinomescan method relative to control.
For experiment [10], the target named is Serine/threonine-protein kinase Nek2 (Homo sapiens) (UniProt P51955). The experiment in a line: Inhibition of wild-type human partial length NEK2 (M1 to K309 residues) expressed in bacterial expression system at 1 uM by Kinomescan method relative to control.
Experiment [11] deals with Phosphatidylinositol 4,5-bisphosphate 3-kinase catalytic subunit alpha isoform (Homo sapiens), P42336 [Q546K]. Kind of experiment: Inhibition of human partial length PIK3CA Q546K mutant (R108 to N1068 residues) expressed in mammalian expression system at 1 uM by Kinomescan method relative to control.
The subject of experiment [12] is Epidermal growth factor receptor (Homo sapiens), P00533 [UNDEFINED MUTATION]. Kind of experiment: Inhibition of human partial length EGFR L747-E749del/A750P mutant expressed in bacterial expression system at 10 uM by Kinomescan method relative to control.
The target of experiment [13] is Activin receptor type-2B (Homo sapiens) (UniProt Q13705). The experiment in a line: Inhibition of wild-type human ACVR2B (H169 to D504 residues) expressed in bacterial expression system at 10 uM by Kinomescan method relative to control.
Experiment [14] deals with Proto-oncogene tyrosine-protein kinase receptor Ret (Homo sapiens), P07949 [V804L]. The experiment in a line: Inhibition of human partial length RET V804L mutant (E713 to D1014 residues) expressed in bacterial expression system at 10 uM by Kinomescan method relative to control.
For experiment [15], the target named is Serine/threonine-protein kinase pim-3 (Homo sapiens) (UniProt Q86V86). Kind of experiment: Inhibition of wild-type human partial length PIM3 (G16 to A317 residues) expressed in bacterial expression system at 10 uM by Kinomescan method relative to control.
Experiment [16] addresses Hepatocyte growth factor receptor (Homo sapiens) (UniProt P08581). Kind of experiment: Inhibition of wild-type human partial length MET (D1010 to S1367 residues) expressed in bacterial expression system at 10 uM by Kinomescan method relative to control.
Experiment [17] addresses Mitogen-activated protein kinase 3 (Homo sapiens) (UniProt P27361). Kind of experiment: Inhibition of wild-type human full length ERK1 (M1 to P379 residues) expressed in bacterial expression system at 10 uM by Kinomescan method relative to control.
Experiment [18] deals with Rhodopsin kinase GRK7 (Homo sapiens) (UniProt Q8WTQ7). Kind of experiment: Inhibition of wild-type human full length GRK7 (M1 to L553 residues) expressed in mammalian expression system at 10 uM by Kinomescan method relative to control.
In experiment [19] the target is Atypical kinase COQ8B, mitochondrial (Homo sapiens) (UniProt Q96D53). The experiment in a line: Inhibition of wild-type human full length ADCK4 (M1 to S544 residues) expressed in bacterial expression system at 10 uM by Kinomescan method relative to control.
The target of experiment [20] is Receptor-interacting serine/threonine-protein kinase 4 (Homo sapiens) (UniProt P57078). Kind of experiment: Inhibition of wild-type human partial length RIPK4 (M1 to V303 residues) expressed in mammalian expression system at 10 uM by Kinomescan method relative to control.
Experiment [21] concerns the target Death-associated protein kinase 1 (Homo sapiens) (UniProt P53355). Kind of experiment: Inhibition of wild-type human partial length DAPK1 (M1 to F296 residues) expressed in bacterial expression system at 10 uM by Kinomescan method relative to control.
Experiment [22] concerns Tyrosine-protein kinase ABL1 (Homo sapiens), P00519 [Q252H]. Kind of experiment: Inhibition of human phosphorylated ABL1 Q252H mutant expressed in mammalian expression system at 10 uM by Kinomescan method relative to control.
Experiment [23] has as its target STE20-like serine/threonine-protein kinase (Homo sapiens) (UniProt Q9H2G2). Kind of experiment: Inhibition of wild-type human partial length SLK (S14 to A307 residues) expressed in bacterial expression system at 10 uM by Kinomescan method relative to control.
The target of experiment [24] is Serine/threonine-protein kinase mTOR (Homo sapiens) (UniProt P42345). The experiment in a line: Inhibition of wild-type human partial length MTOR (L1382 to W2549 residues) expressed in mammalian expression system at 10 uM by Kinomescan method relative to control.
Experiment [25] addresses Uncharacterized serine/threonine-protein kinase SBK3 (Homo sapiens) (UniProt P0C264). Kind of experiment: Inhibition of wild-type human partial length SgK110 (L22 to R329 residues) expressed in bacterial expression system at 10 uM by Kinomescan method relative to control.
The target of experiment [26] is Mast/stem cell growth factor receptor Kit (Homo sapiens) (UniProt P10721). Kind of experiment: Inhibition of wild-type human partial length autoinhibited KIT (Y545 to D952 residues) expressed in mammalian expression system at 10 uM by Kinomescan method relative to control.
Experiment [27] has as its target Serine/threonine-protein kinase Nek7 (Homo sapiens) (UniProt Q8TDX7). Kind of experiment: Inhibition of wild-type human full length NEK7 (M1 to S302 residues) expressed in bacterial expression system at 10 uM by Kinomescan method relative to control.

Molecules are shown by their SMILES.

In general, inhibition refers to the percentage by which the read-out fell short of the control. For the molecule `O=C(Nc1cccc([C@@H]2CN(c3ncnc4[nH]ccc34)CCN2CCO)c1)Nc1c(F)cccc1N1CCCC1`, the inhibition in experiment [1] came out at 95%; in [2], 100%; in experiment [3], 100%; in experiment [4], 95%; in experiment [5], 100%; in experiment [6] it was 99%. In addition, the inhibition turned out to be 93% in [7]; 100% in experiment [8]; 81% in experiment [9]; 100% in [10]; 89% in [11].
Take `O=C(Nc1cccc([C@H]2CCCN(c3ncnc4[nH]ccc34)C2)c1)Nc1ccccc1N1CCCC1`: the inhibition amounted to 82% in experiment [12]; 100% in experiment [13]; 0.1% in [14]; 89% in [15]; 86% in experiment [16]; 100% in [17]. Also, the inhibition in [18] was determined as 80%; in experiment [19], 100%; in experiment [20] it was 71%; in experiment [21] it was 4%; in experiment [22] it was 83%; in experiment [23], 28%. The inhibition in [24] was found to be 98%; in [25], 100%; in experiment [26], 71%; in experiment [27], 72%.
